#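 Method: 48-hour compound exposure of cells in 96-well plates, five concentrations, linear interpolation of endpoints. GI50 is the concentration that inhibits growth by half.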 Calls of active or inactive are those of the source. No stated cut-off is given here; in the data, active = GI50 up to about 1.1 µM and inactive = higher.
# How the values were obtained:
# Assay in all cases: NCI tumour cell line growth inhibition, 48 h
# OVCAR-3 = system: OVCAR-3
# SK-MEL-2 = system: SK-MEL-2
# UACC-62 = system: UACC-62
# LOX IMVI = system: LOX IMVI
# HCT-15 = system: HCT-15
# NCI/ADR-RES = system: NCI/ADR-RES
# BT-549 = system: BT-549
# NCI-H226 = system: NCI-H226
# HCC 2998 = system: HCC 2998
# SF-268 = system: SF-268
# HOP-62 = system: HOP-62
# EKVX = system: EKVX
# T47D = system: T47D
# MDA-MB-435 = system: MDA-MB-435
# OVCAR-5 = system: OVCAR-5
# CCRF-CEM = system: CCRF-CEM
# RPMI-8226 = system: RPMI-8226
# 786-0 = system: 786-0
# NCI-H522 = system: NCI-H522
# SK-OV-3 = system: SK-OV-3
SMILES,GI50 (OVCAR-3),GI50 (SK-MEL-2),GI50 (UACC-62),GI50 (LOX IMVI),GI50 (HCT-15) [µM],GI50 (NCI/ADR-RES),GI50 (BT-549),GI50 (NCI-H226),GI50 (HCC 2998),GI50 (SF-268),GI50 (HOP-62),GI50 (EKVX),GI50 (T47D),GI50 (MDA-MB-435),GI50 (OVCAR-5),GI50 (CCRF-CEM),GI50 (RPMI-8226),GI50 (786-0),GI50 (NCI-H522),GI50 (SK-OV-3)
CC(=O)C1=C(C)N(c2ccc(C)cc2)C2(O)C=CC(=O)C3C(=O)N(c4ccccc4)C(=O)C132 (stereo not drawn),22.3 µM (inactive),12.5 µM (inactive),16.7 µM (inactive),3.08 µM (inactive),11.2,54.2 µM (inactive),17.4 µM (inactive),17.1 µM (inactive),22.5 µM (inactive),31 µM (inactive),25.9 µM (inactive),32.6 µM (inactive),14.1 µM (inactive),36.3 µM (inactive),55.2 µM (inactive),3.9 µM (inactive),3.85 µM (inactive),30.6 µM (inactive),7.89 µM (inactive),–
Cc1cc(S(=O)(=O)Nc2nc(Nc3ccccc3)n[nH]2)c(SCC(=O)O)cc1Cl,> 100 µM (inactive),> 100 µM (inactive),> 100 µM (inactive),> 100 µM (inactive),> 100,> 100 µM (inactive),> 100 µM (inactive),> 100 µM (inactive),> 100 µM (inactive),> 100 µM (inactive),> 100 µM (inactive),> 100 µM (inactive),> 100 µM (inactive),> 100 µM (inactive),> 100 µM (inactive),> 100 µM (inactive),> 100 µM (inactive),> 100 µM (inactive),> 100 µM (inactive),> 100 µM (inactive)
CN1CCN(C(=S)N2CCN(C)CC2)CC1,–,> 100 µM (inactive),4.85 µM (inactive),> 100 µM (inactive),–,25.3 µM (inactive),> 100 µM (inactive),> 100 µM (inactive),> 61.5 µM (inactive),> 100 µM (inactive),> 100 µM (inactive),–,2.11 µM (inactive),> 100 µM (inactive),> 100 µM (inactive),0.7 µM (active),2.06 µM (inactive),21.9 µM (inactive),0.966 µM (active),> 30.1 µM (inactive)
CCOC(=O)c1c(Sc2ccc([N+](=O)[O-])cc2[N+](=O)[O-])nc2c3ccccc3ccn12,> 92.5 µM (inactive),> 100 µM (inactive),> 39.8 µM (inactive),> 100 µM (inactive),> 100,> 71.9 µM (inactive),> 75.2 µM (inactive),83.6 µM (inactive),> 28.6 µM (inactive),28.6 µM (inactive),13.1 µM (inactive),> 100 µM (inactive),> 100 µM (inactive),> 100 µM (inactive),> 100 µM (inactive),40.7 µM (inactive),36.3 µM (inactive),5.6 µM (inactive),41.7 µM (inactive),15.9 µM (inactive)
O=c1[nH]c2c(Nc3c4ccccc4nc4ccccc34)c([N+](=O)[O-])c(Nc3c4ccccc4nc4ccccc34)c([N+](=O)[O-])c2[nH]1,2.15 µM (inactive),1.87 µM (inactive),1.39 µM (inactive),1.52 µM (inactive),1.82,1.01 µM (active),3.51 µM (inactive),2.68 µM (inactive),1.73 µM (inactive),1.98 µM (inactive),1.69 µM (inactive),1.82 µM (inactive),3.29 µM (inactive),2.15 µM (inactive),1.8 µM (inactive),0.855 µM (active),0.514 µM (active),1.2 µM (inactive),1.09 µM (active),3.03 µM (inactive)
Cc1cccc(C(C)(C)C)c1NC(=O)/C(Cc1nc2ccc([N+](=O)[O-])cc2nc1O)=N\NC(=O)C[N+](C)(C)C,52 µM (inactive),> 100 µM (inactive),> 100 µM (inactive),51.3 µM (inactive),> 100,60.5 µM (inactive),38.5 µM (inactive),> 100 µM (inactive),> 100 µM (inactive),> 100 µM (inactive),–,> 100 µM (inactive),53.5 µM (inactive),> 100 µM (inactive),> 100 µM (inactive),–,84.5 µM (inactive),> 100 µM (inactive),17.4 µM (inactive),> 100 µM (inactive)
CC(OC(C)(C)C)[C@H](NC(=O)OC(C)(C)C)C(=O)O (stereo partly drawn),> 100 µM (inactive),–,> 100 µM (inactive),> 100 µM (inactive),> 100,> 100 µM (inactive),> 100 µM (inactive),> 100 µM (inactive),> 100 µM (inactive),> 100 µM (inactive),> 100 µM (inactive),> 100 µM (inactive),> 100 µM (inactive),> 100 µM (inactive),> 100 µM (inactive),> 100 µM (inactive),> 100 µM (inactive),> 100 µM (inactive),> 100 µM (inactive),> 100 µM (inactive)

# — ChEMBL document CHEMBL1201862, “PubChem BioAssay data set” (2004)
